Source: ChEMBL document CHEMBL3044562, “Survival and developmental impairment induced by the trypsin inhibitor bis-benzamidine in the velvetbean caterpillar (Anticarsia gemmatalis)” (Crop Prot, 2011)
Calls of active or inactive are those of the source.

Tests used:
Assay type in all cases: functional, organism-based
Anticarsia gemmatalis [1] = experiment: Insecticidal activity against Anticarsia gemmatalis (velvetbean caterpillar) assessed as reduction in survival time at over 150 ppm
Anticarsia gemmatalis [2] = experiment: Insecticidal activity against Anticarsia gemmatalis (velvetbean caterpillar) assessed as reduction in survival time at > 100 ppm
Anticarsia gemmatalis [3] = experiment: Insecticidal activity against Anticarsia gemmatalis (velvetbean caterpillar) assessed as specific amidolytic and esterolytic activity in midgut at 9.5 ppm
Anticarsia gemmatalis [4] = experiment: Insecticidal activity against Anticarsia gemmatalis (velvetbean caterpillar) assessed as sharp decline in proteolytic activity in midgut using L-BApNA and L-TAME at 9.5 ppm
Anticarsia gemmatalis [5] = experiment: Increase in protein digestibility in Anticarsia gemmatalis (velvetbean caterpillar) assessed as double the consumption at 76 ppm
Anticarsia gemmatalis [6] = experiment: Effect on diet consumption in Anticarsia gemmatalis (velvetbean caterpillar) assessed as double the consumption at 76 ppm relative to control
Anticarsia gemmatalis [7] = experiment: Insecticidal activity against Anticarsia gemmatalis (velvetbean caterpillar) assessed as decrease in pupa weight upto 80 ppm
Anticarsia gemmatalis [8] = experiment: Insecticidal activity against Anticarsia gemmatalis (velvetbean caterpillar) assessed as prolongation of larval development upto 76 ppm
Anticarsia gemmatalis [9] = experiment: Insecticidal activity against Anticarsia gemmatalis (velvetbean caterpillar) assessed as reduction in survival at > 76 ppm for more than 15 days

N=C(N)c1ccc(/N=N/Nc2ccc(C(=N)N)cc2)cc1
active: inhibition (Anticarsia gemmatalis [1]) | inhibition (Anticarsia gemmatalis [2]) | inhibition (Anticarsia gemmatalis [3]) | inhibition (Anticarsia gemmatalis [4]) | Activity (Anticarsia gemmatalis [5]) | Activity (Anticarsia gemmatalis [6]) | inhibition (Anticarsia gemmatalis [7]) | Activity (Anticarsia gemmatalis [8]) | inhibition (Anticarsia gemmatalis [9])
